# Measured values from patent US7198804B2, “Crude drug composition for preventing and treating gastrointestinal dyskinetic diseases” (Helixir Co., Ltd., priority 2002, dated 2007).
# Counter-ions that a name gives are not always drawn.
# Columns and labels:
# [1] = tested on: gastrointestinal motility; experiment: Gastrointestinal transit (GIT) of charcoal meal in mice; type: in vivo, ICR derived mice; conditions: for GIT: mean±S.E.M.
# Protocol: Female ICR derived mice (Seoul National University) weighing 22±2 grams were used. All animals were maintained in a controlled environment with temperatures at 22° C.–24° C. and humidity at 60%–80% with 12 hours of light and dark cycles for at least one week prior to use. 9 groups of 8 ICR derived female mice were fasted with free access to water for 16 hours prior to testing.
# For the estimation of the effect on gastrointestinal motility, 0.1 g of the brown powder of each formulation obtained in Example 1, was dissolved in 1 ml of 2% Tween 80 (Wako, Japan) and administrated orally to the mice.
# Atropine sulfate (Sigma, USA) was used for the negative control in the experiment, which is known to induce smooth muscle relaxation. Mosapride citrate was administered at 20 mg/kg. Each crude drug composition of 6 formulations prepared in Example 1, was administered at 1.0 g/kg. At 60 minutes post dosing, the animals were given a suspension of 5% activated charcoal (Sigma, USA) in a 10% arabic gum (Sigma, USA) solution (0.3 ml/animal p.o.) and sacrificed 15 minutes later.
# The intestine was removed and the length of the gut in cm (GL) as well as distance of charcoal movement from the pylorus to the beginning of the charcoal column in cm (CP), was measured. Gastrointestinal transit (GIT) has been calculated as below Formula 1. The mean GIT value of each group has been compared to that of the vehicle control. GIT(%)=(CP/GL)×100 Formula 1
# Values were expressed as means±S.E.M. Students' t-test was used for the statistical analysis of the results of gastrointestinal transit. Probability values (p) less than 0.05 were considered to be significant.
# PG202, prepared in Example 1, was administered into the mice orally at concentrations of 0.1 g/kg, 1.0 g/kg, and 5.0 g/kg. The control group was administered with the vehicle (2% Tween 80) at 10 ml/kg. At 60 minutes post dosing, the animals were given a suspension of 5% activated charcoal (Sigma, USA) in a 10% Arabic gum (Sigma, USA) solution (0.3 ml/animal p.o.) and sacrificed 15 minutes later and the gastrointestinal transit (GIT) was examined according to the Formula 1. Data have been expressed as means±S.E.M.*p<0.05.
# PG202 was administrated orally at 1.0 g/kg to the test group, 2% Tween 80 (Wako, Japan) at 10 ml/kg to control group, Mosapride citrate at 20 mg/kg to positive control group, Atropine sulfate (Sigma, USA) at 100 mg/kg to negative control group. Data have been expressed as means±S.E.M.*p<0.05.
# At 60 minutes post dosing, the animals were given a suspension of 5% activated charcoal (Sigma, USA) in a 10% arabic gum (Sigma, USA) solution (0.3 ml /animal p.o.) and sacrificed 15 minutes later. GIT (%) values were determined according to the Formula 1.
# rodents = conditions: cited from earlier work
Compound,decrease of GIT in comparison to the control group ([1]; 100 mg/kg p.o.),"GIT ([1]; 100 mg/kg p.o., negative control)",increase of GIT compared to the control ([1]; 20 mg/kg p.o.),"GIT ([1]; 20 mg/kg p.o., positive control)",incidence of hepatocellular adenoma and thyroid follicular cell adenoma (rodents)
"CN1[C@@H]2CC[C@H]1CC(OC(=O)C(CO)c1ccccc1)C2.CN1[C@@H]2CC[C@H]1CC(OC(=O)C(CO)c1ccccc1)C2.O=S(=O)(O)O (some centres unmarked) [Atropine, Atropine sulfate]",35%,35.4±3.4%,–,–,–
CCOc1cc(N)c(Cl)cc1C(=O)NCC1CN(Cc2ccc(F)cc2)CCO1 (centres unmarked) [mosapride citrate],–,–,21%,63.7±5.2%,increased
